How the values were obtained:
Capivasertib = compound: C1CN(CCC1(C(=O)N[C@@H](CCO)C2=CC=C(C=C2)Cl)N)C3=NC=NC4=C3C=CN4 [Capivasertib]
Summary of the method: (§1)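 After 24 hours at 37°C and 5% CO2 in 1536-well plates holding 7.5 μl of DMEM/F12 or RPMI with 10% FBS, cancer cell lines were dosed for 72 hours, with final DMSO typically 0.2%. Viability came from CellTiter-Glo 2.0 luminescence, scaled between the means of blank wells and DMSO wells. A non-linear mixed effects model fitted a two-parameter logistic curve to each dose response to give the single-agent IC50.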

AZD1775 = compound: C=CCn1c(=O)c2cnc(Nc3ccc(N4CCN(C)CC4)cc3)nc2n1-c1cccc(C(C)(C)O)n1 [AZD1775]
Summary of the method: as §1

Trametinib = compound: CC(=O)Nc1cccc(-n2c(=O)n(C3CC3)c(=O)c3c(Nc4ccc(I)cc4F)n(C)c(=O)c(C)c32)c1 [Trametinib]; conditions: max 1 µM
Summary of the method: as §1

Palbociclib = compound: CC(=O)c1c(C)c2cnc(Nc3ccc(N4CCNCC4)cn3)nc2n(C2CCCC2)c1=O [Palbociclib]; conditions: max 10 µM
Summary of the method: as §1

AZD1390 = compound: CC(C)n1c(=O)n(C)c2cnc3cc(F)c(-c4ccc(OCCCN5CCCCC5)nc4)cc3c21 [AZD1390]; conditions: max 0.3 µM
Summary of the method: as §1

Venetoclax = compound: CC1(C)CCC(CN2CCN(c3ccc(C(=O)NS(=O)(=O)c4ccc(NCC5CCOCC5)c([N+](=O)[O-])c4)c(Oc4cnc5[nH]ccc5c4)c3)CC2)=C(c2ccc(Cl)cc2)C1 [Venetoclax]; conditions: max 1 µM
Summary of the method: as §1

Dasatinib = compound: CC1=C(C(=CC=C1)Cl)NC(=O)C2=CN=C(S2)NC3=CC(=NC(=N3)C)N4CCN(CC4)CCO [Dasatinib]; conditions: max 2 µM
Summary of the method: as §1

SG3199 = compound: CC1=CN2[C@@H](C1)C=NC3=CC(=C(C=C3C2=O)OC)OCCCCCOC4=C(C=C5C(=C4)N=C[C@@H]6CC(=CN6C5=O)C)OC [SG3199]; conditions: max 0.001 µM
Summary of the method: as §1

AZD2811 = compound: CCN(CCO)CCCOc1ccc2c(Nc3cc(CC(=O)Nc4cccc(F)c4)[nH]n3)ncnc2c1 [AZD2811]; conditions: max 1 µM
Summary of the method: as §1

SN-38 = compound: CCc1c2c(nc3ccc(O)cc13)-c1cc3c(c(=O)n1C2)COC(=O)[C@]3(O)CC [SN-38]; conditions: max 0.3 µM
Summary of the method: as §1

AZD0156 = compound: CN(C)CCCOc1ccc(-c2ccc3ncc4c(c3c2)n(C2CCOCC2)c(=O)n4C)cn1 [AZD0156]
Summary of the method: as §1

AZD4320 = compound: CN(CC[C@H](CSC1=CC=CC=C1)NC2=C(C=C(C=C2)S(=O)(=O)NC(=O)C3=CC=C(C=C3)N4CCC(CC4)[C@H](C5=CC=CC=C5C6=CC=C(C=C6)Cl)O)S(=O)(=O)C(F)(F)F)CCO [AZD4320]; conditions: max 1 µM
Summary of the method: as §1

Alisertib = compound: COc1cc(Nc2ncc3c(n2)-c2ccc(Cl)cc2C(c2c(F)cccc2OC)=NC3)ccc1C(=O)O [Alisertib]; conditions: max 10 µM
Summary of the method: as §1

Gefitinib = compound: COc1cc2ncnc(Nc3ccc(F)c(Cl)c3)c2cc1OCCCN1CCOCC1 [Gefitinib]; conditions: max 10 µM
Summary of the method: as §1

Prexasertib = compound: COc1cccc(OCCCN)c1-c1cc(Nc2cnc(C#N)cn2)n[nH]1 [Prexasertib]; conditions: max 1 µM
Summary of the method: as §1

Doxorubicin = compound: COc1cccc2c1C(=O)c1c(O)c3c(c(O)c1C2=O)C[C@@](O)(C(=O)CO)C[C@@H]3O[C@H]1C[C@H](N)[C@H](O)[C@H](C)O1 [Doxorubicin]; conditions: max 1 µM
Summary of the method: as §1

AZD5153 = compound: COc1nnc2ccc(N3CCC(c4ccc(OCCN5CCN(C)C(=O)[C@H]5C)cc4)CC3)nn12 [AZD5153]; conditions: max 1 µM
Summary of the method: as §1

Lapatinib = compound: CS(=O)(=O)CCNCc1ccc(-c2ccc3ncnc(Nc4ccc(OCc5cccc(F)c5)c(Cl)c4)c3c2)o1 [Lapatinib]; conditions: max 10 µM
Summary of the method: as §1

AZD8186 = compound: C[C@@H](Nc1cc(F)cc(F)c1)c1cc(C(=O)N(C)C)cc2c(=O)cc(N3CCOCC3)oc12 [AZD8186]; conditions: max 3 µM
Summary of the method: as §1

Crizotinib = compound: C[C@@H](Oc1cc(-c2cnn(C3CCNCC3)c2)cnc1N)c1c(Cl)ccc(F)c1Cl [Crizotinib]; conditions: max 10 µM
Summary of the method: as §1

Savolitinib = compound: C[C@@H](c1ccc2nccn2c1)n1nnc2ncc(-c3cnn(C)c3)nc21 [Savolitinib]; conditions: max 1 µM
Summary of the method: as §1

AZD6738 = compound: C[C@@H]1COCCN1C2=NC(=NC(=C2)C3(CC3)[S@](=N)(=O)C)C4=C5C=CNC5=NC=C4 [AZD6738]; conditions: max 10 µM
Summary of the method: as §1

AZD5991 = compound: Cc1c2c(nn1C)CSCc1cc(n(C)n1)CSc1cc(c3ccccc3c1)OCCCc1c(C(=O)O)n(C)c3c-2c(Cl)ccc13 [AZD5991]; conditions: max 1 µM
Summary of the method: as §1

AZD7648 = compound: Cc1cc2ncnn2cc1Nc1ncc2c(n1)n(C1CCOCC1)c(=O)n2C [AZD7648]; conditions: max 10 µM
Summary of the method: as §1

Taselisib = compound: Cc1nc(-c2cn3c(n2)-c2ccc(-c4cnn(C(C)(C)C(N)=O)c4)cc2OCC3)n(C(C)C)n1 [Taselisib]; conditions: max 10 µM
Summary of the method: as §1

Selumetinib = compound: Cn1cnc2c(F)c(Nc3ccc(Br)cc3Cl)c(C(=O)NOCCO)cc21 [Selumetinib]
Summary of the method: as §1

Olaparib = compound: O=C(c1cc(Cc2n[nH]c(=O)c3ccccc23)ccc1F)N1CCN(C(=O)C2CC2)CC1 [Olaparib]; conditions: max 10 µM
Summary of the method: as §1

Cell Line | IC50, cell viability 72 h (Capivasertib; max 10 µM) | IC50, cell viability 72 h (AZD1775; max 3 µM) | IC50, cell viability 72 h (Trametinib) | IC50, cell viability 72 h (Palbociclib) | IC50, cell viability 72 h (AZD1390) | IC50, cell viability 72 h (Venetoclax) | IC50, cell viability 72 h (Dasatinib) | IC50, cell viability 72 h (SG3199) | IC50, cell viability 72 h (AZD2811) | IC50, cell viability 72 h (SN-38) | IC50, cell viability 72 h (AZD0156; max 3 µM) | IC50, cell viability 72 h (AZD4320) | IC50, cell viability 72 h (Alisertib) | IC50, cell viability 72 h (Gefitinib) | IC50, cell viability 72 h (Prexasertib) | IC50, cell viability 72 h (Doxorubicin) | IC50, cell viability 72 h (AZD5153) | IC50, cell viability 72 h (Lapatinib) | IC50, cell viability 72 h (AZD8186) | IC50, cell viability 72 h (Crizotinib) | IC50, cell viability 72 h (Savolitinib) | IC50, cell viability 72 h (AZD6738) | IC50, cell viability 72 h (AZD5991) | IC50, cell viability 72 h (AZD7648) | IC50, cell viability 72 h (Taselisib) | IC50, cell viability 72 h (Selumetinib; max 10 µM) | IC50, cell viability 72 h (Olaparib) | IC50, cell viability 72 h (Capivasertib; max 3 µM) | IC50, cell viability 72 h (AZD1775; max 1 µM) | IC50, cell viability 72 h (AZD0156; max 1 µM) | IC50, cell viability 72 h (Selumetinib; max 3 µM)
CAL-27 (Oral Cavity Carcinoma) | > 10 µM | 1.85 µM | 0.129 µM | > 10 µM | > 0.3 µM | > 1 µM | 0.431 µM | > 0.001 µM | 0.608 µM | 0.0136 µM | > 3 µM | > 1 µM | 0.443 µM | 0.839 µM | 0.894 µM | 0.927 µM | 0.426 µM | 0.933 µM | > 3 µM | > 10 µM | > 1 µM | > 10 µM | 0.413 µM | > 10 µM | 0.854 µM | 1.89 µM | > 10 µM | – | – | – | –
CESS (Acute Myeloid Leukemia) | 4.12 µM | 0.353 µM | > 1 µM | 8.03 µM | > 0.3 µM | > 1 µM | 1.4 µM | > 0.001 µM | > 1 µM | 0.00615 µM | > 3 µM | > 1 µM | 0.107 µM | > 10 µM | 0.0122 µM | 0.237 µM | 0.297 µM | > 10 µM | 2.14 µM | 4.01 µM | > 1 µM | 2.08 µM | > 1 µM | > 10 µM | 7.4 µM | > 10 µM | > 10 µM | – | – | – | –
COLO-792 (Melanoma) | > 10 µM | 2.29 µM | 0.11 µM | > 10 µM | > 0.3 µM | > 1 µM | > 2 µM | > 0.001 µM | > 1 µM | > 0.3 µM | > 3 µM | 0.788 µM | > 10 µM | > 10 µM | > 1 µM | > 1 µM | 0.512 µM | > 10 µM | > 3 µM | 5.38 µM | > 1 µM | > 10 µM | 0.238 µM | > 10 µM | 1.69 µM | 5.94 µM | > 10 µM | – | – | – | –
EPLC-272H (Other Solid Carcinomas) | 1.8 µM | 0.454 µM | 0.0227 µM | > 10 µM | > 0.3 µM | > 1 µM | 0.148 µM | > 0.001 µM | > 1 µM | 0.126 µM | > 3 µM | > 1 µM | > 10 µM | 5.46 µM | 0.00851 µM | > 1 µM | 0.116 µM | 5.77 µM | > 3 µM | > 10 µM | > 1 µM | 1 µM | 0.391 µM | > 10 µM | 0.256 µM | 2.28 µM | > 10 µM | – | – | – | –
TE-10 (Esophageal Squamous Cell Carcinoma) | – | – | 0.825 µM | – | – | > 1 µM | – | > 0.001 µM | > 1 µM | 0.0371 µM | – | > 1 µM | 2.93 µM | – | 0.0119 µM | 0.82 µM | – | – | > 3 µM | – | – | 1.6 µM | 0.29 µM | > 10 µM | 0.941 µM | – | > 10 µM | > 3 µM | 0.381 µM | > 1 µM | > 3 µM
